Data from patent US7632524B2, “Pharmaceutical preparations for the treatment of itch, nausea, hyperalgesia and the complications of opioid agonists” (priority 2002, dated 2009).

Columns and labels:
Type in all cases: in vivo
opioid-induced emesis = experiment: Ferret model of opioid (morphine-6-glucuronide)-induced emesis
Procedure: FIG. 1. Prevention of opioid-induced emesis by the Croton speceis extract, (Zangrado®). Emesis as measured by the number of vomiting and retching episodes per hour was induced by parenteral administration of the opioid narcotic, morphine-6-glucuronide (15 mg/kg) ip.
Sangre de Grado has also been used ethnomedically for the treatment of a variety of intestinal complications including diarrhea, ulcerations, cancer and emesis. Using a well-established ferret model of post-operative complications of emesis induced by morphine, Zangrado (CGO 110) was administered intraperitoneally (3 mg/kg) to ferrets 15 minutes prior to the administration of morphine-6-glucuronide (M6G), known to promote itching, retching and vomiting. The animals were monitored for sixty minutes.
As shown in FIG. 1 the subcutaneous injection of 0.05 mg/kg M6G caused a significant number of vomiting (2.2±0.4) and retching (10±1.2) incidences in the control group. In those animals treated with Zangrado (CGO 110), the number of these episodes was virtually abolished (vomiting 0.6±0.3; retching 2.2±0.7, P<0.05). Given the utility of this model to predict treatments for nausea and vomiting, Zangrado (CGO 110) contains active components and is effective in the treatment of emesis.

opioid-induced itch = experiment: Ferret model of opioid (morphine-6-glucuronide)-induced itch (licking)
Procedure: FIG. 2: FIG. 2. Prevention of opioid-induced itch by Zangrado. Itch, as measured by the number of licking episodes per hour, was induced by parenteral administration of the opioid narcotic, morphine-6-glucuronide (15 mg/kg) ip.
Zangrado (CGO 110) contains active components and is effective in the treatment of itch.

[1] = Body temperature and sedation at anti-emetic doses; conditions: CGO 110 3 mg/kg
From the text: As such, Zangrado represents a significant improvement in the treatment of emesis and itch.

## Cc1c(C(=O)NN2CCCCC2)nn(-c2ccc(Cl)cc2Cl)c1-c1ccc(I)cc1 [AM251]
opioid-induced emesis
  effect on emesis in naïve animals: promotes emesis
opioid-induced itch
  effect on licking in naïve animals: promotes licking

## Cc1c(C(=O)c2cccc3ccccc23)c2cccc3c2n1[C@H](CN1CCOCC1)CO3 [WIN 55, 212-2]
[1]
  effect on body temperature: produces a drop in body temperature
  sedation: significant sedation
